# Assay: (§1) The drug is tested on WLS-240 corresponding to human gut metagenome with ENA study accession number: PRJEB37062 and ENA sample accession number: ERS12561773 for biotransformation under anaerobic condition. The drug concentrations were measured over 9 timepoints collected between 0 and 24 hours of incubation by liquid-chromatography-coupled mass spectrometry (LC–MS)
# Conditions: 2 µM
# Also: call rule not given here.
row,Bacterial Biotransformation,SMILES
1,Compound metabolized,C=CCc1ccccc1OCC(O)CNC(C)C (stereo not given) [ALPRENOLOL]
2,Compound metabolized,OC(CCN1CCCCC1)(c1ccccc1)C1CCCCC1 (stereo not given) [TRIHEXYPHENIDYL]
3,Compound NOT metabolized,CNC(=C[N+](=O)[O-])NCCSCc1csc(CN(C)C)n1 [NIZATIDINE]
4,Compound metabolized,CCCCC1=NC2(CCCC2)C(=O)N1Cc1ccc(-c2ccccc2-c2nnn[nH]2)cc1 [IRBESARTAN]

# Assay: as §1, with “Z-002” for “WLS-240”, “rabbit” for “human”, “ERS12561802” for “ERS12561773”
# Conditions: 2 µM
row,Bacterial Biotransformation,SMILES
1,Compound metabolized,C=CCc1ccccc1OCC(O)CNC(C)C (stereo not given) [ALPRENOLOL]
2,Compound metabolized,OC(CCN1CCCCC1)(c1ccccc1)C1CCCCC1 (stereo not given) [TRIHEXYPHENIDYL]
3,Compound NOT metabolized,CNC(=C[N+](=O)[O-])NCCSCc1csc(CN(C)C)n1 [NIZATIDINE]
4,Compound metabolized,CCCCC1=NC2(CCCC2)C(=O)N1Cc1ccc(-c2ccccc2-c2nnn[nH]2)cc1 [IRBESARTAN]

# Conditions: human gut metagenome, 24 h, 2 µM
row,Bacterial Biotransformation,SMILES
1,Compound metabolized,C=CCc1ccccc1OCC(O)CNC(C)C (stereo not given) [ALPRENOLOL]
2,Compound metabolized,OC(CCN1CCCCC1)(c1ccccc1)C1CCCCC1 (stereo not given) [TRIHEXYPHENIDYL]
3,Compound metabolized,CNC(=C[N+](=O)[O-])NCCSCc1csc(CN(C)C)n1 [NIZATIDINE]
4,Compound metabolized,CCCCC1=NC2(CCCC2)C(=O)N1Cc1ccc(-c2ccccc2-c2nnn[nH]2)cc1 [IRBESARTAN]

# Assay: as §1, with “WLS-098” for “WLS-240”, “ERS12561754” for “ERS12561773”
# Conditions: 2 µM
row,Bacterial Biotransformation,SMILES
1,Compound metabolized,C=CCc1ccccc1OCC(O)CNC(C)C (stereo not given) [ALPRENOLOL]
2,Compound metabolized,OC(CCN1CCCCC1)(c1ccccc1)C1CCCCC1 (stereo not given) [TRIHEXYPHENIDYL]
3,Compound metabolized,CNC(=C[N+](=O)[O-])NCCSCc1csc(CN(C)C)n1 [NIZATIDINE]
4,Compound metabolized,CCCCC1=NC2(CCCC2)C(=O)N1Cc1ccc(-c2ccccc2-c2nnn[nH]2)cc1 [IRBESARTAN]

# Conditions: human gut metagenome, 24 h, 2 µM
# Remark: another data set of the same source
row,Bacterial Biotransformation,SMILES
1,Compound metabolized,C=CCc1ccccc1OCC(O)CNC(C)C (stereo not given) [ALPRENOLOL]
2,Compound metabolized,OC(CCN1CCCCC1)(c1ccccc1)C1CCCCC1 (stereo not given) [TRIHEXYPHENIDYL]
3,Compound metabolized,CNC(=C[N+](=O)[O-])NCCSCc1csc(CN(C)C)n1 [NIZATIDINE]
4,Compound metabolized,CCCCC1=NC2(CCCC2)C(=O)N1Cc1ccc(-c2ccccc2-c2nnn[nH]2)cc1 [IRBESARTAN]

# Conditions: human gut metagenome, 24 h, 2 µM
# Remark: another data set of the same source
row,Bacterial Biotransformation,SMILES
1,Compound NOT metabolized,C=CCc1ccccc1OCC(O)CNC(C)C (stereo not given) [ALPRENOLOL]
2,Compound NOT metabolized,OC(CCN1CCCCC1)(c1ccccc1)C1CCCCC1 (stereo not given) [TRIHEXYPHENIDYL]
3,Compound NOT metabolized,CNC(=C[N+](=O)[O-])NCCSCc1csc(CN(C)C)n1 [NIZATIDINE]
4,Compound metabolized,CCCCC1=NC2(CCCC2)C(=O)N1Cc1ccc(-c2ccccc2-c2nnn[nH]2)cc1 [IRBESARTAN]

# Conditions: human gut metagenome, 24 h, 2 µM
# Remark: another data set of the same source
row,Bacterial Biotransformation,SMILES
1,Compound NOT metabolized,C=CCc1ccccc1OCC(O)CNC(C)C (stereo not given) [ALPRENOLOL]
2,Compound metabolized,OC(CCN1CCCCC1)(c1ccccc1)C1CCCCC1 (stereo not given) [TRIHEXYPHENIDYL]
3,Compound NOT metabolized,CNC(=C[N+](=O)[O-])NCCSCc1csc(CN(C)C)n1 [NIZATIDINE]
4,Compound metabolized,CCCCC1=NC2(CCCC2)C(=O)N1Cc1ccc(-c2ccccc2-c2nnn[nH]2)cc1 [IRBESARTAN]

# Conditions: human gut metagenome, 24 h, 2 µM
# Remark: another data set of the same source
row,Bacterial Biotransformation,SMILES
1,Compound NOT metabolized,C=CCc1ccccc1OCC(O)CNC(C)C (stereo not given) [ALPRENOLOL]
2,Compound NOT metabolized,OC(CCN1CCCCC1)(c1ccccc1)C1CCCCC1 (stereo not given) [TRIHEXYPHENIDYL]
3,Compound NOT metabolized,CNC(=C[N+](=O)[O-])NCCSCc1csc(CN(C)C)n1 [NIZATIDINE]
4,Compound metabolized,CCCCC1=NC2(CCCC2)C(=O)N1Cc1ccc(-c2ccccc2-c2nnn[nH]2)cc1 [IRBESARTAN]

# Conditions: human gut metagenome, 24 h, 2 µM
# Remark: another data set of the same source
row,Bacterial Biotransformation,SMILES
1,Compound NOT metabolized,C=CCc1ccccc1OCC(O)CNC(C)C (stereo not given) [ALPRENOLOL]
2,Compound metabolized,OC(CCN1CCCCC1)(c1ccccc1)C1CCCCC1 (stereo not given) [TRIHEXYPHENIDYL]
3,Compound NOT metabolized,CNC(=C[N+](=O)[O-])NCCSCc1csc(CN(C)C)n1 [NIZATIDINE]
4,Compound NOT metabolized,CCCCC1=NC2(CCCC2)C(=O)N1Cc1ccc(-c2ccccc2-c2nnn[nH]2)cc1 [IRBESARTAN]

# Assay: as §1, with “Z-012” for “WLS-240”, “to” for “to human gut”, “ERS12561812” for “ERS12561773”
# Conditions: 2 µM
row,Bacterial Biotransformation,SMILES
1,Compound NOT metabolized,C=CCc1ccccc1OCC(O)CNC(C)C (stereo not given) [ALPRENOLOL]
2,Compound NOT metabolized,OC(CCN1CCCCC1)(c1ccccc1)C1CCCCC1 (stereo not given) [TRIHEXYPHENIDYL]
3,Compound NOT metabolized,CNC(=C[N+](=O)[O-])NCCSCc1csc(CN(C)C)n1 [NIZATIDINE]
4,Compound NOT metabolized,CCCCC1=NC2(CCCC2)C(=O)N1Cc1ccc(-c2ccccc2-c2nnn[nH]2)cc1 [IRBESARTAN]

# Assay: as §1, with “Z-010” for “WLS-240”, “to” for “to human gut”, “ERS12561810” for “ERS12561773”
# Conditions: 2 µM
row,Bacterial Biotransformation,SMILES
1,Compound NOT metabolized,C=CCc1ccccc1OCC(O)CNC(C)C (stereo not given) [ALPRENOLOL]
2,Compound metabolized,OC(CCN1CCCCC1)(c1ccccc1)C1CCCCC1 (stereo not given) [TRIHEXYPHENIDYL]
3,Compound NOT metabolized,CNC(=C[N+](=O)[O-])NCCSCc1csc(CN(C)C)n1 [NIZATIDINE]
4,Compound metabolized,CCCCC1=NC2(CCCC2)C(=O)N1Cc1ccc(-c2ccccc2-c2nnn[nH]2)cc1 [IRBESARTAN]

# Assay: as §1, with “WLS-007” for “WLS-240”, “ERS12561742” for “ERS12561773”
# Conditions: 2 µM
row,Bacterial Biotransformation,SMILES
1,Compound NOT metabolized,C=CCc1ccccc1OCC(O)CNC(C)C (stereo not given) [ALPRENOLOL]
2,Compound metabolized,OC(CCN1CCCCC1)(c1ccccc1)C1CCCCC1 (stereo not given) [TRIHEXYPHENIDYL]
3,Compound NOT metabolized,CNC(=C[N+](=O)[O-])NCCSCc1csc(CN(C)C)n1 [NIZATIDINE]
4,Compound metabolized,CCCCC1=NC2(CCCC2)C(=O)N1Cc1ccc(-c2ccccc2-c2nnn[nH]2)cc1 [IRBESARTAN]

# Conditions: human gut metagenome, 24 h, 2 µM
# Remark: another data set of the same source
row,Bacterial Biotransformation,SMILES
1,Compound metabolized,C=CCc1ccccc1OCC(O)CNC(C)C (stereo not given) [ALPRENOLOL]
2,Compound metabolized,OC(CCN1CCCCC1)(c1ccccc1)C1CCCCC1 (stereo not given) [TRIHEXYPHENIDYL]
3,Compound NOT metabolized,CNC(=C[N+](=O)[O-])NCCSCc1csc(CN(C)C)n1 [NIZATIDINE]
4,Compound metabolized,CCCCC1=NC2(CCCC2)C(=O)N1Cc1ccc(-c2ccccc2-c2nnn[nH]2)cc1 [IRBESARTAN]

# Assay: as §1, with “Z-011” for “WLS-240”, “mouse” for “human”, “ERS12561811” for “ERS12561773”
# Conditions: 2 µM
row,Bacterial Biotransformation,SMILES
1,Compound NOT metabolized,C=CCc1ccccc1OCC(O)CNC(C)C (stereo not given) [ALPRENOLOL]
2,Compound NOT metabolized,OC(CCN1CCCCC1)(c1ccccc1)C1CCCCC1 (stereo not given) [TRIHEXYPHENIDYL]
3,Compound metabolized,CNC(=C[N+](=O)[O-])NCCSCc1csc(CN(C)C)n1 [NIZATIDINE]
4,Compound NOT metabolized,CCCCC1=NC2(CCCC2)C(=O)N1Cc1ccc(-c2ccccc2-c2nnn[nH]2)cc1 [IRBESARTAN]

# Assay: as §1, with “Z-026” for “WLS-240”, “to” for “to human gut”, “ERS12561825” for “ERS12561773”
# Conditions: 2 µM
row,Bacterial Biotransformation,SMILES
1,Compound metabolized,C=CCc1ccccc1OCC(O)CNC(C)C (stereo not given) [ALPRENOLOL]
2,Compound NOT metabolized,OC(CCN1CCCCC1)(c1ccccc1)C1CCCCC1 (stereo not given) [TRIHEXYPHENIDYL]
3,Compound NOT metabolized,CNC(=C[N+](=O)[O-])NCCSCc1csc(CN(C)C)n1 [NIZATIDINE]
4,Compound NOT metabolized,CCCCC1=NC2(CCCC2)C(=O)N1Cc1ccc(-c2ccccc2-c2nnn[nH]2)cc1 [IRBESARTAN]

# Assay: as §1, with “WLS-039” for “WLS-240”, “ERS12561746” for “ERS12561773”
# Conditions: 2 µM
row,Bacterial Biotransformation,SMILES
1,Compound NOT metabolized,C=CCc1ccccc1OCC(O)CNC(C)C (stereo not given) [ALPRENOLOL]
2,Compound metabolized,OC(CCN1CCCCC1)(c1ccccc1)C1CCCCC1 (stereo not given) [TRIHEXYPHENIDYL]
3,Compound NOT metabolized,CNC(=C[N+](=O)[O-])NCCSCc1csc(CN(C)C)n1 [NIZATIDINE]
4,Compound metabolized,CCCCC1=NC2(CCCC2)C(=O)N1Cc1ccc(-c2ccccc2-c2nnn[nH]2)cc1 [IRBESARTAN]

# Assay: as §1, with “WLS-010” for “WLS-240”, “ERS12561743” for “ERS12561773”
# Conditions: 2 µM
row,Bacterial Biotransformation,SMILES
1,Compound NOT metabolized,C=CCc1ccccc1OCC(O)CNC(C)C (stereo not given) [ALPRENOLOL]
2,Compound NOT metabolized,OC(CCN1CCCCC1)(c1ccccc1)C1CCCCC1 (stereo not given) [TRIHEXYPHENIDYL]
3,Compound NOT metabolized,CNC(=C[N+](=O)[O-])NCCSCc1csc(CN(C)C)n1 [NIZATIDINE]
4,Compound metabolized,CCCCC1=NC2(CCCC2)C(=O)N1Cc1ccc(-c2ccccc2-c2nnn[nH]2)cc1 [IRBESARTAN]

# Assay: as §1, with “WLS-038” for “WLS-240”, “ERS12561745” for “ERS12561773”
# Conditions: 2 µM
row,Bacterial Biotransformation,SMILES
1,Compound NOT metabolized,C=CCc1ccccc1OCC(O)CNC(C)C (stereo not given) [ALPRENOLOL]
2,Compound NOT metabolized,OC(CCN1CCCCC1)(c1ccccc1)C1CCCCC1 (stereo not given) [TRIHEXYPHENIDYL]
3,Compound NOT metabolized,CNC(=C[N+](=O)[O-])NCCSCc1csc(CN(C)C)n1 [NIZATIDINE]
4,Compound metabolized,CCCCC1=NC2(CCCC2)C(=O)N1Cc1ccc(-c2ccccc2-c2nnn[nH]2)cc1 [IRBESARTAN]

# Assay: as §1, with “WLS-027” for “WLS-240”, “ERS12561744” for “ERS12561773”
# Conditions: 2 µM
row,Bacterial Biotransformation,SMILES
1,Compound NOT metabolized,C=CCc1ccccc1OCC(O)CNC(C)C (stereo not given) [ALPRENOLOL]
2,Compound NOT metabolized,OC(CCN1CCCCC1)(c1ccccc1)C1CCCCC1 (stereo not given) [TRIHEXYPHENIDYL]
3,Compound NOT metabolized,CNC(=C[N+](=O)[O-])NCCSCc1csc(CN(C)C)n1 [NIZATIDINE]
4,Compound metabolized,CCCCC1=NC2(CCCC2)C(=O)N1Cc1ccc(-c2ccccc2-c2nnn[nH]2)cc1 [IRBESARTAN]

# Assay: as §1, with “WLS-170” for “WLS-240”, “ERS12561762” for “ERS12561773”
# Conditions: 2 µM
row,Bacterial Biotransformation,SMILES
1,Compound metabolized,C=CCc1ccccc1OCC(O)CNC(C)C (stereo not given) [ALPRENOLOL]
2,Compound metabolized,OC(CCN1CCCCC1)(c1ccccc1)C1CCCCC1 (stereo not given) [TRIHEXYPHENIDYL]
3,Compound metabolized,CNC(=C[N+](=O)[O-])NCCSCc1csc(CN(C)C)n1 [NIZATIDINE]
4,Compound metabolized,CCCCC1=NC2(CCCC2)C(=O)N1Cc1ccc(-c2ccccc2-c2nnn[nH]2)cc1 [IRBESARTAN]

# From ChEMBL document CHEMBL5724914, “Linking interpersonal differences in gut microbiota composition and drug biotransformation activity” (2024)
